# Assay results published in ChEMBL document CHEMBL1201862, “PubChem BioAssay data set” (2004).
# Active and inactive are the calls of the source.
# Columns and labels:
# SN12K1 = experiment: cells; type: functional; conditions: Homo sapiens
# P388 = experiment: cells; type: functional; conditions: Mus musculus
# P388/ADR = experiment: cells; type: functional; conditions: Mus musculus
# [1] = A cytotoxicity screen of small molecule inhibitors of the PhoP region in Salmonella typhi identified in the primary screen. [Related pubchem assays: 1850, 1864, 1985 ]; type: functional
# Streptococcus = experiment: GAS UMAA2166 growth inhibition – luminescence, BacTiterGlo, counter-screen for streptokinase expression inhibitor project, dose response (AID 1915); type: functional, organism-based;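 also: potency for reduction of bacterial viability or growth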
# Leucine aminopeptidase = biological target: T1, Leucine aminopeptidase (Plasmodium falciparum 3D7, UniProt Q8IL11); experiment: P. falciparum M17LAP inhibitors, primary screen, biochemical, fluorogenic H-Leu-NHMec substrate, 1536-well (AID 1619); type: functional
# T1 sequence (Q8IL11 whole entry): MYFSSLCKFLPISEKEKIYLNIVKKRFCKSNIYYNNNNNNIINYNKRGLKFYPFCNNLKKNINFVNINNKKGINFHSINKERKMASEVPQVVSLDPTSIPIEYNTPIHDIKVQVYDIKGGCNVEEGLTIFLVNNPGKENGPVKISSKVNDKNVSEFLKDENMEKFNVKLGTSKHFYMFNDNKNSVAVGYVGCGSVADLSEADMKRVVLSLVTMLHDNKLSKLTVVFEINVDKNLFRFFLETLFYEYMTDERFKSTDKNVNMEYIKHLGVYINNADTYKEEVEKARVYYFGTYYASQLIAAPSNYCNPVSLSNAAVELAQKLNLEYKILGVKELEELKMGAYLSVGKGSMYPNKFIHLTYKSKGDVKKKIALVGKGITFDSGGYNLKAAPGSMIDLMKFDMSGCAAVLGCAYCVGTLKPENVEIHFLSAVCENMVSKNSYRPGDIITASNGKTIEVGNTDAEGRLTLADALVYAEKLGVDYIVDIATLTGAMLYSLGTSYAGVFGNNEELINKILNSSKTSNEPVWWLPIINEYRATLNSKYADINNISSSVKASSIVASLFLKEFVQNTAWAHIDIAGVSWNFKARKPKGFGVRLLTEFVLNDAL
# [2] = system: Streptococcus sp. 'group A'; experiment: Streptococcus pyogenes SK(-)GAS viability under kanamycin – luminescence, BacTiterGlo, confirmation, counter-screen for streptokinase expression inhibitor project, dose response (AID 1900); type: functional, organism-based
# [3] = biological target: T2, Carboxy-terminal domain RNA polymerase II polypeptide A small phosphatase 1 (Homo sapiens, UniProt Q9GZU7); experiment: CTDSP1 inhibitors, concentration-response, biochemical, absorbance readout, ultra-high-throughput screen actives (AID 540297); type: functional
# T2 sequence (Q9GZU7 whole entry): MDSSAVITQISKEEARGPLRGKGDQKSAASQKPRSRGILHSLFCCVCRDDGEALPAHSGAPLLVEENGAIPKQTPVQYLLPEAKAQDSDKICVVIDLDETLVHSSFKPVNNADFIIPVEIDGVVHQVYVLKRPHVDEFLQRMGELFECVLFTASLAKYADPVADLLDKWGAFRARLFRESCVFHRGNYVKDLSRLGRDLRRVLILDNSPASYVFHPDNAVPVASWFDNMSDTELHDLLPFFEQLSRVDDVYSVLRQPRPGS
# [4] = microbe, parasite or virus in culture; type: functional; conditions: Mycobacterium tuberculosis
# Prothrombin [5] = biological target: Prothrombin (Homo sapiens, UniProt P00734); experiment: Thrombin 1536 HTS Dose Response Confirmation. [Related pubchem assays: 1046 (Thrombin 1536 HTS; hits were confirmed in this assay)]; type: functional
# [6] = biological target: T3, RNA-binding protein pos-1 (Caenorhabditis elegans, UniProt G5EF15); experiment: disruptors of C. elegans POS-1 RNA interaction – biochemical, fluorescence polarization, dose response (AID 1964);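 also: purified POS-1 fused to maltose binding protein made in E. coli; potency of compounds blocking POS-1 binding to fluorescent RNA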
# T3 sequence (G5EF15 whole entry): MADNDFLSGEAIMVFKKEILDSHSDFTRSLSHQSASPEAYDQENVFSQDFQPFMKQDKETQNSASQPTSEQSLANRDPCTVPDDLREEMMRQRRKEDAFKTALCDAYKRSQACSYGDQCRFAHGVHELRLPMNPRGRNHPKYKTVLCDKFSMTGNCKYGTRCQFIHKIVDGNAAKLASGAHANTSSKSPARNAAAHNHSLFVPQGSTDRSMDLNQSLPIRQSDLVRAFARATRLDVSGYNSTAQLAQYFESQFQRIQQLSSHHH
# [7] = biological target: T4, Zinc finger protein mex-5 (Caenorhabditis elegans, UniProt Q9XUB2); experiment: potency of MEX-5 RNA-binding blockers – biochemical, C. elegans, fluorescence polarization, dose response (AID 1960)
# T4 sequence (Q9XUB2 whole entry): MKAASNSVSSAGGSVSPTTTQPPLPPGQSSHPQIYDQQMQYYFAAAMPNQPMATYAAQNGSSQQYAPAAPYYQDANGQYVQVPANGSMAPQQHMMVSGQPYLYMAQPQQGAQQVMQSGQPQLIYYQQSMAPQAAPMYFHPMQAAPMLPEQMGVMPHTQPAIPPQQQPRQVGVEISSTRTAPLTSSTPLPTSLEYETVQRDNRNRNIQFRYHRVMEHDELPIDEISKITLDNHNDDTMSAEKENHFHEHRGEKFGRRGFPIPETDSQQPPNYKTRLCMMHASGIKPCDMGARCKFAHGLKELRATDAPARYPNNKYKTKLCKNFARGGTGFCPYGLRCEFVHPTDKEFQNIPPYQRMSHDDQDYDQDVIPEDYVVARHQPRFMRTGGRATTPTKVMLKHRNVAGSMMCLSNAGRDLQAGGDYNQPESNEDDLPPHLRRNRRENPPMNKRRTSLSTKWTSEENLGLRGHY
# Protein skinhead-1 = biological target: T5, Protein skinhead-1 (Caenorhabditis elegans, UniProt P34707); type: functional
# T5 sequence (P34707 whole entry): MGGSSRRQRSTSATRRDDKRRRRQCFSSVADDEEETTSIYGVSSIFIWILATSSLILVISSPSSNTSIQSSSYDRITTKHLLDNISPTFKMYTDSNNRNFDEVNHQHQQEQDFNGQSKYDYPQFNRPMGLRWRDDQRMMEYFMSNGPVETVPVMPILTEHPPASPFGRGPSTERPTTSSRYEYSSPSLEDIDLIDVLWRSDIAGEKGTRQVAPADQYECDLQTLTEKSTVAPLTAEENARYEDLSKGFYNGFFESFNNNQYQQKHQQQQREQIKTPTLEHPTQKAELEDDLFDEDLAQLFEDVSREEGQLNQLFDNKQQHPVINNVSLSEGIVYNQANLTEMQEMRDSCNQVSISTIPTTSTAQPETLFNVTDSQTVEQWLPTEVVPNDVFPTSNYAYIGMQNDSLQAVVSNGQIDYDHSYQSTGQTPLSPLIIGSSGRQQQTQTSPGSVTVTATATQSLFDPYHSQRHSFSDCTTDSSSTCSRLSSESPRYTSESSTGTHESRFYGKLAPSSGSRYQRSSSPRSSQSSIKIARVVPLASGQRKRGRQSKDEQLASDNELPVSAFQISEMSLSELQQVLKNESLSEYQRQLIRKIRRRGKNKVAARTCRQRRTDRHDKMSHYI
# Prothrombin [8] = biological target: Prothrombin (Bos taurus, UniProt P00735); experiment: thrombin protease inhibitors – biochemical, fluorescence polarization, uHTS hits, dose response (AID 602369); type: functional
# [9] = biological target: 26S proteasome non-ATPase regulatory subunit 14 (Homo sapiens, UniProt O00487); experiment: inhibition of proteasome subunit RPN11 – biochemical, fluorescence polarization, uHTS hits, confirmation (AID 602368); type: functional
# Sequence of 26S proteasome non-ATPase regulatory subunit 14 (O00487 whole entry): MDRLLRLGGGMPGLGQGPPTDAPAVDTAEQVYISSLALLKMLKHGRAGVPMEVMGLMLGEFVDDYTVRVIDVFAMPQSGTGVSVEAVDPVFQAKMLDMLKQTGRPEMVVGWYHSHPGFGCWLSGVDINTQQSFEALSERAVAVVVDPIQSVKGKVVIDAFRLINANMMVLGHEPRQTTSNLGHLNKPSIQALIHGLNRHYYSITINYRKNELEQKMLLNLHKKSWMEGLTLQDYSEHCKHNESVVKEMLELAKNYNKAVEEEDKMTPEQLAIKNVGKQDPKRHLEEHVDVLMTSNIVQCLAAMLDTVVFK
# [10] = biological target: 72 kDa type IV collagenase (Homo sapiens, UniProt P08253); experiment: Dose Response validation of uHTS RPN11 inhibitor hits using a MMP-2 Fluorescence assay.; type: functional
# Sequence of 72 kDa type IV collagenase (P08253 whole entry, the tested form may be a part): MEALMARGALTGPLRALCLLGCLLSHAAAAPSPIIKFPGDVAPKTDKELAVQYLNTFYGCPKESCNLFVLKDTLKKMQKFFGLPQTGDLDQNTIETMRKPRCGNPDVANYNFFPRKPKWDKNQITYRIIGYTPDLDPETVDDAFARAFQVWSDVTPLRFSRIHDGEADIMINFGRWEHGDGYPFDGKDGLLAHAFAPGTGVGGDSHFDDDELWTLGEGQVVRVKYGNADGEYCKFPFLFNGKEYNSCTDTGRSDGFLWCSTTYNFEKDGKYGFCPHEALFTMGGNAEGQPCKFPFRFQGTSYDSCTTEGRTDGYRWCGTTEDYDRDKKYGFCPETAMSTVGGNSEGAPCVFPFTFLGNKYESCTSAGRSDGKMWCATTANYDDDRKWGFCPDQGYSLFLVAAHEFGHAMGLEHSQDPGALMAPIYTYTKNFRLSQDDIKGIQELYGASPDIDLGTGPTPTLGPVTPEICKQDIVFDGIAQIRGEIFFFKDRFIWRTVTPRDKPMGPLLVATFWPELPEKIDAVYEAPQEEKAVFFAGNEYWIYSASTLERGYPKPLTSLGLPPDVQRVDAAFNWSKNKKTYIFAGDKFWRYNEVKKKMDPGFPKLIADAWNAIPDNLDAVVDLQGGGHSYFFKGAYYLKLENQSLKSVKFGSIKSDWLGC
# [11] = off-target signal loss in HeLa-CEM21 co-culture – HeLa F-luc CTL cells, cherry-picked, counter-screen for HIV-1 Env fusion inhibitor project, dose response (AID 652040); type: functional, cell-based;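 also: potency for signal decrease marking cytotoxic or nonspecific inhibition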
# [12] = HIV-1 AD8 envelope cell-cell fusion blockers – cherry-pick, dose response (AID 652062); type: functional, cell-based;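 also: luciferase signal from cell-cell fusion driven by HIV-1 clade B AD8 Env; potency is for inhibitors of fusion seen as a drop in luminescence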
# Nonstructural protein 1 = Nonstructural protein 1 (Influenza A virus, UniProt Q194T2); type: functional, Influenza A virus (A/California/07/2009(H1N1))
# Sequence of Nonstructural protein 1 (Q194T2 whole entry): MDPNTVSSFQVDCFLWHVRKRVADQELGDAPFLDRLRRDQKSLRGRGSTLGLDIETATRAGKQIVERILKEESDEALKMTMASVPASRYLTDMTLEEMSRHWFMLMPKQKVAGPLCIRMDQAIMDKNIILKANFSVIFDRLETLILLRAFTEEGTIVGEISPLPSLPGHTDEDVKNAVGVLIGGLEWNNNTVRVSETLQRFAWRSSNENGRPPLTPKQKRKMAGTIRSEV
smiles,measurement,setting,value
Nc1ccc2cc(S(=O)(=O)O)cc(O)c2c1/N=N/c1ccc(NC(=O)Nc2ccc(/N=N/c3c(N)ccc4cc(S(=O)(=O)O)cc(O)c34)c(S(=O)(=O)O)c2)cc1S(=O)(=O)O,GI50,SN12K1,> 100 µM (inactive)
same,GI50,P388,45.2 µM (inactive)
same,GI50,P388/ADR,95.5 µM (inactive)
CC(NCc1ccc(Cl)cc1)C(O)c1ccccc1 (stereo not drawn),EC50,[1],> 50 µM (active)
Cc1nnc(SCC2=C(C(=O)O)N3C(=O)C(NC(=O)Cn4nc(C(F)F)c(Cl)c4C)C3SC2)s1 (stereo not drawn),EC50,Streptococcus,0.228 µM (active)
same,IC50,Leucine aminopeptidase,13.9 µM (active)
same,EC50,[2],< 0.06 µM (active)
O=C(CSc1nc(O)cc(-c2ccccc2)n1)Nc1ccccn1,IC50,Leucine aminopeptidase,8.69 µM (active)
NC(=NOC(=O)c1cccc([N+](=O)[O-])c1)c1cccc([N+](=O)[O-])c1,IC50,[3],11.2 µM (active)
CCc1c(O)cc(=O)n(-c2ccccc2)c1-c1ccccc1,IC50,Leucine aminopeptidase,23.5 µM (active)
O=C(CCn1c(=O)c2cccn2c2cccnc21)N1CCN(c2cccc(Cl)c2)CC1,CC50,[4],> 40 µM (active)
CSc1ccc(/C=C(\C(=O)O)c2ccc(S(=O)(=O)N3CCCC3)s2)cc1,IC50,[3],5.2 µM (active)
C[N@+]12CC[C@H](CC1)C(=C(c1ccccc1)c1ccccc1)C2,IC50,[3],3.04 µM (active)
CC(=O)OCC1(C)CN(c2ccccc2)N(C(=O)c2ccc(C(C)(C)C)cc2)C1=O (stereo not drawn),IC50,Prothrombin [5],18 µM (active)
Cc1cccc(-n2ccnc2CN2CCN(C3CCCC3)C(CCO)C2)c1 (stereo not drawn),EC50,[1],> 50 µM (active)
C=CCn1c(SCC(=O)NCc2ccc3c(c2)OCO3)nnc1C1COc2ccccc2O1 (stereo not drawn),IC50,Leucine aminopeptidase,< 1 µM (active)
COc1cc(S(=O)(=O)N2CCOCC2)ccc1NC(=O)COC(=O)c1ccccn1,IC50,Prothrombin [5],0.545 µM (active)
N=c1c(C(=O)NC2CCCCC2)cc2c(=O)n3ccccc3nc2n1Cc1ccc(F)cc1,CC50,[4],> 40 µM (active)
same,EC50,[6],> 300 µM (not active)
same,EC50,[7],13.3 µM (active)
N=C(NOC(=O)COc1ccc2ccccc2c1)c1ccccn1,EC50,[1],> 50 µM (active)
CCOC(=O)CSC1=N/C(=C/c2ccc(-n3cncn3)cc2)C(=O)N1C(C)=O,IC50,Prothrombin [5],0.942 µM (active)
COC(=O)c1ccc(NC(S)=NNC(=O)c2ccccc2)cc1,EC50,[1],> 50 µM (active)
Brc1ccc(Oc2nnnn2-c2ccccc2)cc1,IC50,Protein skinhead-1,35.1 µM (active)
Cc1cc(NC(=O)Cc2ccsc2)ccc1Br,IC50,Protein skinhead-1,> 100 µM (inactive)
COC(c1ccccc1)c1nnc(CCC(=O)N(C)Cc2cccc(-n3cccn3)c2)o1 (stereo not drawn),IC50,Prothrombin [5],> 50 µM (not active)
CCOC(=O)N1CCN(CCC(=O)c2ccc(Br)cc2)CC1,EC50,[1],> 50 µM (active)
O=C(Nc1ccc2[nH]c(-c3ccc(Br)o3)nc2c1)c1ccco1,EC50,[1],> 50 µM (active)
O=C(C1CCCCC1)N1CCN(S(=O)(=O)c2ccc(Cl)cc2)CC1,IC50,Protein skinhead-1,> 100 µM (inactive)
O=C(O)CSCC(=O)NCc1cccc(C(F)(F)F)c1,IC50,Prothrombin [5],> 50 µM (not active)
O=C1Nc2ccc(S(=O)(=O)NCc3ccccn3)c3cccc1c23,IC50,[3],8.42 µM (active)
N/C(=N\O)N/N=C/c1cc2c(cc1Cl)OCO2,GI50,SN12K1,31.3 µM (inactive)
same,GI50,P388,29.3 µM (inactive)
same,GI50,P388/ADR,23.7 µM (inactive)
C=CCN1C(=O)/C(=C\Nc2cccc([N+](=O)[O-])c2)C(=O)N(CCCC)C1=O,IC50,Prothrombin [8],42.7 µM (active)
same,IC50,[9],34 µM (active)
same,IC50,[10],> 100 µM (inactive)
O=C1CN(CC(=O)N2CCCCC2)c2ccccc2O1,CC50,[4],38.6 µM (active)
O=C(COC(=O)c1cncc(Br)c1)Nc1nnc(-c2ccccc2)o1,IC50,[3],6.29 µM (active)
C=CCCC(=O)N1C[C@H]2CON(C)[C@H]2C[C@H]1c1ccc(N2CCCCC2)cc1,IC50,Prothrombin [8],57.2 µM (active)
same,IC50,[9],52.2 µM (active)
same,IC50,[10],> 100 µM (inactive)
Cn1cccc1C(=O)OCC(=O)NCCc1ccc(S(N)(=O)=O)cc1,AC50,[11],> 70 µM (inactive)
same,AC50,[12],7.13 µM (active)
O=C(CCCN1CCC(C(O)c2ccc(F)cc2)CC1)c1ccc(F)cc1 (stereo not drawn),GI50,SN12K1,56.4 µM (inactive)
same,GI50,P388,38.3 µM (inactive)
same,GI50,P388/ADR,46.1 µM (inactive)
Cc1c2c(cc3c1[nH]c1ccccc13)C(c1ccc(Cl)cc1)=NCC2,GI50,SN12K1,0.284 µM (active)
same,GI50,P388,0.398 µM (active)
same,GI50,P388/ADR,0.428 µM (active)
CO[C@H]1CN(C)C(=O)c2cc(NC(=O)C3CCOCC3)ccc2OC[C@H](C)N(Cc2nccs2)C[C@H]1C,AC50,[11],43.3 µM (active)
same,AC50,[12],24.9 µM (active)
Cc1c2cc[n+](C)cc2c(C)c2c1[nH]c1ccccc12,GI50,SN12K1,0.416 µM (active)
same,GI50,P388,0.887 µM (active)
same,GI50,P388/ADR,55.5 µM (inactive)
Cc1cc(N2CCN(C3CCCCC3)CC2)nc2cccc(O)c12,EC50,[1],> 50 µM (active)
same,IC50,Nonstructural protein 1,> 100 µM (active)
COc1ccc(NC(=O)Cn2c(-c3ccc(OC)cc3)cn(-c3ccc(C)cc3)c2=O)cc1,IC50,Prothrombin [8],48.5 µM (active)
same,IC50,[9],35.2 µM (active)
same,IC50,[10],> 100 µM (inactive)
COc1nc(C(Cl)(Cl)Cl)c(Cl)c(OC)c1Cl [PENCLOMEDINE],GI50,SN12K1,28.3 µM (inactive)
same,GI50,P388,8.61 µM (inactive)
same,GI50,P388/ADR,40.6 µM (inactive)
